Results reported in paper PMC3897731, “Antimicrobial Properties and Membrane-Active Mechanism of a Potential α-Helical Antimicrobial Derived from Cathelicidin PMAP-36” (PLoS ONE, 2014).
Values after ≈ are worked out from the molar mass of the structure shown. Like-named read-outs stand apart in the source and are kept apart here. Ends that are not written are not given here.

Key:
human erythrocytes = assay: Hemolytic activity; assay type: cell-based; conditions: for Hemolytic activity (in words): 1 h at 37°C in PBS, absorbance at 570 nm, up to 128 µM, three independent experiments; for Concentration causing 50% hemolysis: highest concentration 128 µM
Protocol: The hemolytic activity of the peptides was measured as the amount of hemoglobin released by the lysis of human erythrocytes. Briefly, 1 ml of fresh human blood cells (hRBCs) obtained from a healthy donor (Na Dong, Harbin, China) in a polycarbonate tube containing heparin was centrifuged at 1,000×g for 5 min at 4°C [16]. The experimental protocol was reviewed and approved by the ethics committee of the Northeast Agricultural University Hospital. The erythrocytes obtained were washed three times with phosphate-buffered saline (PBS) solution (pH 7.2) and resuspended in PBS. A 50 µl volume of the erythrocyte solution was incubated with 50 µl of various peptides dissolved in PBS for 1 h at 37°C. Intact erythrocytes were pelleted by centrifugation at 1,000×g for 5 min at 4°C, and the supernatant was transferred to a new 96-well plate. The release of hemoglobin was monitored by measuring the absorbance at 570 nm. As negative and positive controls, hRBCs in PBS without the peptide and 0.1% Triton X-100 were employed, respectively.

[1] = system: Staphylococcus aureus ATCC 25923; conditions: ATCC 25923, 24 h
Protocol: (§1) The antimicrobial activity of each peptide was determined against the following bacteria strains: Escherichia coli ATCC 25922, Escherichia coli UB1005, Salmonella enterica serovar typhimurium C77-31, Staphylococcus aureus ATCC 29213, Staphylococcus aureus ATCC 25923 and Staphylococcus epidermidis ATCC 12228. The minimal inhibitory concentrations (MICs) of the peptides were measured according to a modified version of the National Committee for Clinical Laboratory Standards (NCCLS) broth microdilution method as described previously. Briefly, mid-logarithmic phase bacteria were cultured in Mueller-Hinton (MH) broth and then diluted to 1×10^5 CFU/ml. Equal volumes (50 µl) of microorganism solution and 2-fold serially diluted different concentrations (0.25–128 µM) peptides in 0.01% (v/v) acetic acid and 0.2% (w/v) bovine serum albumin (BSA, Sigma) were added to each well of the sterile 96-well plate. After incubation for 24 h at 37°C, MICs were determined as the lowest concentration of peptides that prevented visible turbidity by visual inspection. The tests were performed in triplicate. Cultures without peptides and uninoculated MH broth were employed as positive and negative controls, respectively. In addition, the salt stability of the peptides was tested in the MIC assay mentioned above.

[2] = system: gram-negative and gram-positive bacteria (six strains tested)
Protocol: as §1

[3] = system: Staphylococcus epidermidis ATCC 12228
Protocol: as §1

Escherichia coli UB1005 = system: Escherichia coli UB1005
Protocol: as §1

[4] = system: Escherichia coli ATCC 25922; conditions: ATCC 25922, 24 h
Protocol: as §1

[5] = system: Staphylococcus aureus ATCC 29213; conditions: ATCC 29213, 24 h
Protocol: as §1

[6] = system: Salmonella enterica serovar typhimurium C77-31
Protocol: as §1

E. coli ATCC 25922 = assay: FACScan analysis of membrane integrity (propidium iodide); assay type: cell-based, Escherichia coli
Protocol: The integrity of the bacterial cell membranes after peptide treatment was determined using a previously described method. In brief, mid-logarithmic phase E. coli ATCC 25922 were harvested by centrifugation and washed three times with 10 mM PBS solution. The peptides (1×MIC and 2×MIC) were added and incubated for 30 min at 28°C with constant shaking at 140 rpm, and then, propidium iodide (PI, 10 µg/ml final concentration, Sigma) was added and incubated for a further 30 min at 4°C. After incubation, the unbound dye was removed via excessive washing of cells with PBS. Flow cytometry analysis was conducted using a FACScan instrument (Becton–Dickinson, San Jose, CA). E. coli cells were incubated with PI without peptide treated as negative control.

E. coli UB1005 = assay: Inner (cytoplasmic) membrane depolarization, diSC3(5); assay type: cell-based, Escherichia coli; conditions: 0.4 µM diSC3(5), monitored over 360 s
Protocol: The cytoplasmic membrane depolarization activity of the peptides was measured by using E. coli UB1005 and the membrane potential sensitive fluorescent dye diSC3(5) as described previously. Briefly, mid-logarithmic phase E. coli were washed with 5 mM sodium HEPES buffer, pH 7.4, containing 20 mM glucose, and resuspended to an OD600 of 0.05 in the same buffer. The cell suspension was incubated with 0.4 µM diSC3(5) until a stable reduction of fluorescence was achieved (approximately 1 h). Then KCl was added to a final concentration of 0.1 M to equilibrate the cytoplasmic and external K^+. Two milliliters of the cell suspension were placed in a 1 cm cuvette, and the peptides were added to achieve the desired concentrations. Changes in fluorescence were recorded using an F-4500 fluorescence spectrophotometer (Hitachi, Japan) with an excitation wavelength of 622 nm and an emission wavelength of 670 nm. 0.1% Triton X-100 was employed as positive controls.

[7] = strain not given; for MIC, Without treatment: no salt added
[8] = all tested strains, >128 µM counted as 256 µM
[9] = serovar typhimurium C77-31, 24 h
[10] = broth microdilution, MH broth, 1×10^5 CFU/ml, 24 h at 37°C, visible turbidity, triplicate

## PPIVGSIPLGCG-NH2 [PG12]
Human erythrocytes
  Hemolytic activity (in words): no hemolytic activity
[1]
  MIC S. aureus ATCC 25923: >128 µM
[2]; [8]
  GM, geometric mean of the MICs: 256 µM
[3]; ATCC 12228, 24 h
  MIC S. epidermidis ATCC 12228: >128 µM
Escherichia coli UB1005; UB1005, 24 h
  MIC E. coli UB 1005: >128 µM
[4]
  MIC E. coli ATCC25922: >128 µM
[5]
  MIC S. aureus ATCC 29213: >128 µM
[6]; [9]
  MIC S. typhimurium C77-31: >128 µM

## CC[C@H](C)[C@H](NC(=O)CN)C(=O)NCC(=O)N[C@@H](C)C(=O)N[C@H](C(=O)N[C@@H](CC(C)C)C(=O)N[C@@H](CCCCN)C(=O)N[C@H](C(=O)N[C@@H](CC(C)C)C(=O)N[C@H](C(=O)N[C@H](C(=O)NCC(=O)N[C@@H](CC(C)C)C(=O)N1CCC[C@H]1C(=O)N[C@@H](C)C(=O)N[C@@H](CC(C)C)C(=O)N[C@H](C(=O)N[C@@H](CO)C(=O)N[C@@H](Cc1c[nH]c2ccccc12)C(=O)N[C@H](C(=O)N[C@@H](CCCCN)C(=O)N[C@@H](CCCNC(=N)N)C(=O)N[C@@H](CCCCN)C(=O)N[C@@H](CCCNC(=N)N)C(=O)N[C@@H](CCC(N)=O)C(=O)N[C@@H](CCC(N)=O)C(N)=O)[C@@H](C)CC)[C@@H](C)CC)[C@@H](C)O)[C@@H](C)O)C(C)C)C(C)C [melittin, reference compound]
E. coli ATCC 25922
  Cells stained with PI: 40.7%
Human erythrocytes; 1 h at 37°C
  Concentration causing complete hemolysis: 4 µM
[2]; 24 h
  GM, geometric mean of the MICs: 2.52 µM
[3]; [10]
  MIC S. epidermidis ATCC 12228: 0.5 µM (≈ 1.42 µg/mL)
Escherichia coli UB1005; [10]
  MIC E. coli UB 1005: 2 µM (≈ 5.69 µg/mL)
[6]; [10]
  MIC S. typhimurium C77-31: 2 µM (≈ 5.69 µg/mL)
E. coli UB1005
  Cytoplasmic membrane depolarization (diSC3(5) fluorescence, in words): induced dose-dependent increases in diSC3(5) fluorescence

## RLKKIGKVLKWI-NH2 [RI12]
Human erythrocytes
  Hemolytic activity (in words): no hemolytic activity
[1]
  MIC S. aureus ATCC 25923: 128 µM
[2]; [8]
  GM, geometric mean of the MICs: 28.51 µM
[3]; ATCC 12228, 24 h
  MIC S. epidermidis ATCC 12228: 64 µM
Escherichia coli UB1005; UB1005, 24 h
  MIC E. coli UB 1005: 16 µM
[4]
  MIC E. coli ATCC25922: 8 µM
[5]
  MIC S. aureus ATCC 29213: 64 µM
[6]; [9]
  MIC S. typhimurium C77-31: 8 µM

## GRFRRLRKKTRKRLKKIGKVLKKI-NH2 [GI24-W23K]
Human erythrocytes
  Hemolytic activity (in words): no hemolytic activity
[1]
  MIC S. aureus ATCC 25923: 64 µM
[2]; [8]
  GM, geometric mean of the MICs: 45.25 µM
[3]; ATCC 12228, 24 h
  MIC S. epidermidis ATCC 12228: 32 µM
Escherichia coli UB1005; UB1005, 24 h
  MIC E. coli UB 1005: 16 µM
[4]
  MIC E. coli ATCC25922: 32 µM
[5]
  MIC S. aureus ATCC 29213: 32 µM
[6]; [9]
  MIC S. typhimurium C77-31: >128 µM

## GRFRRLRKKTRKRLKKIGKV
[2]; tested microorganisms, up to 128 µM
  Antimicrobial activity (in words): extremely low antimicrobial activity

## GRFRRLRKKTRKRLKKIGKVLKAI-NH2 [GI24-W23A]
[1]
  MIC S. aureus ATCC 25923: 128 µM
[2]; [8]
  GM, geometric mean of the MICs: 71.84 µM
[3]; ATCC 12228, 24 h
  MIC S. epidermidis ATCC 12228: 128 µM
Escherichia coli UB1005; UB1005, 24 h
  MIC E. coli UB 1005: 16 µM
[4]
  MIC E. coli ATCC25922: 16 µM
[5]
  MIC S. aureus ATCC 29213: 128 µM
[6]; [9]
  MIC S. typhimurium C77-31: >128 µM

## GRFRRLRKKTRKRLKKIGKVLKLI-NH2 [GI24-W23L]
Human erythrocytes
  Hemolytic activity (in words): slightly hemolytic activity
[1]
  MIC S. aureus ATCC 25923: 4 µM
[2]; [8]
  GM, geometric mean of the MICs: 2.52 µM
[3]; ATCC 12228, 24 h
  MIC S. epidermidis ATCC 12228: 4 µM
Escherichia coli UB1005; UB1005, 24 h
  MIC E. coli UB 1005: 2 µM
[4]
  MIC E. coli ATCC25922: 1 µM
[5]
  MIC S. aureus ATCC 29213: 4 µM
[6]; [9]
  MIC S. typhimurium C77-31: 2 µM

## GVFRRLRKVTRKVLKKIGKVLKWI-NH2 [GI24-V3]
Human erythrocytes
  Hemolytic activity (in words): relatively high hemolytic activity
Human erythrocytes; 1 h at 37°C
  Concentration causing 50% hemolysis: 128 µM
[1]
  MIC S. aureus ATCC 25923: 4 µM
[2]; [8]
  GM, geometric mean of the MICs: 3.56 µM
[3]; ATCC 12228, 24 h
  MIC S. epidermidis ATCC 12228: 2 µM
Escherichia coli UB1005; UB1005, 24 h
  MIC E. coli UB 1005: 4 µM
[4]
  MIC E. coli ATCC25922: 4 µM
[5]
  MIC S. aureus ATCC 29213: 4 µM
[6]; [9]
  MIC S. typhimurium C77-31: 4 µM

## GRFRRLRKKTRKRLKKIGKVLKWI-NH2 [GI24]
Human erythrocytes
  Hemolytic activity (in words): slightly hemolytic activity
Human erythrocytes; 1 h at 37°C
  Concentration causing 50% hemolysis: > 128 µM
[1]
  MIC S. aureus ATCC 25923: 4 µM
[2]; [8]
  GM, geometric mean of the MICs: 1.78 µM
[3]; ATCC 12228, 24 h
  MIC S. epidermidis ATCC 12228: 2 µM
Escherichia coli UB1005; UB1005, 24 h
  MIC E. coli UB 1005: 2 µM
[4]
  MIC E. coli ATCC25922: 1 µM
[5]
  MIC S. aureus ATCC 29213: 2 µM
[6]; [9]
  MIC S. typhimurium C77-31: 1 µM
[7]
  MIC, CaCl2 (1 mM): 1 µM
  MIC, MgCl2 (1 mM): 2 µM
  MIC, NaCl (50 mM): 1 µM
  MIC, NaCl (100 mM): 2 µM
  MIC, NaCl (150 mM): 2 µM
  MIC, Without treatment: 1 µM

## GVFRVLRKVTRVVLKVIGKVLKWI-NH2 [GI24-V6]
Human erythrocytes
  Hemolytic activity (in words): relatively high hemolytic activity
Human erythrocytes; 1 h at 37°C
  Concentration causing 50% hemolysis: 8 µM
[1]
  MIC S. aureus ATCC 25923: 2 µM
[2]; [8]
  GM, geometric mean of the MICs: 2.52 µM
[3]; ATCC 12228, 24 h
  MIC S. epidermidis ATCC 12228: 2 µM
Escherichia coli UB1005; UB1005, 24 h
  MIC E. coli UB 1005: 4 µM
[4]
  MIC E. coli ATCC25922: 2 µM
[5]
  MIC S. aureus ATCC 29213: 2 µM
[6]; [9]
  MIC S. typhimurium C77-31: 4 µM

## GRFRRLRKKTRK-NH2 [GK12]
Human erythrocytes
  Hemolytic activity (in words): no hemolytic activity
[1]
  MIC S. aureus ATCC 25923: >128 µM
[2]; [8]
  GM, geometric mean of the MICs: 203.19 µM
[3]; ATCC 12228, 24 h
  MIC S. epidermidis ATCC 12228: >128 µM
Escherichia coli UB1005; UB1005, 24 h
  MIC E. coli UB 1005: 128 µM
[4]
  MIC E. coli ATCC25922: 128 µM
[5]
  MIC S. aureus ATCC 29213: >128 µM
[6]; [9]
  MIC S. typhimurium C77-31: >128 µM

## GRFRRLRKKTRKRLKKIGKVLKWIPPIVGSIPLGCG-NH2 [PMAP-36, porcine myeloid antimicrobial peptide-36]
Human erythrocytes
  Hemolytic activity (in words): slightly hemolytic activity
[1]
  MIC S. aureus ATCC 25923: 2 µM
[2]; [8]
  GM, geometric mean of the MICs: 1.59 µM
[3]; ATCC 12228, 24 h
  MIC S. epidermidis ATCC 12228: 2 µM
Escherichia coli UB1005; UB1005, 24 h
  MIC E. coli UB 1005: 2 µM
[4]
  MIC E. coli ATCC25922: 1 µM
[5]
  MIC S. aureus ATCC 29213: 2 µM
[6]; [9]
  MIC S. typhimurium C77-31: 1 µM
[7]
  MIC, CaCl2 (1 mM): 1 µM
  MIC, MgCl2 (1 mM): 2 µM
  MIC, NaCl (50 mM): 1 µM
  MIC, NaCl (100 mM): 1 µM
  MIC, NaCl (150 mM): 2 µM
  MIC, Without treatment: 1 µM
